Laboratory results as given in paper PMC9889419 (Pharmacological Reports, 2022).
Structures can show the parent of a compound that is named as a salt.

How the values were obtained:
Sigma (non-selective) = assay: Radioligand binding; design: species or system rat
Protocol: (§1) Radioligand binding. Radioligand binding assays were performed at Eurofins CEREP (France). The results are expressed as a percent of control specific binding (measured specific binding*100/control specific binding) and as a percent inhibition of control specific binding (100-(measured specific binding*100)/control specific binding) obtained in the presence of the test compounds. The IC50 values (concentration causing a half-maximal inhibition of control specific binding) and Hill coefficients (nH) were determined by non-linear regression analysis of the competition curves generated with mean replicate values using Hill equation curve fitting (Y = D + [A-D]/[1 + (C/C50)^nH], where Y = specific binding, A = left asymptote of the curve, D = right asymptote of the curve, C = compound concentration, C50 = IC50, and nH = slope factor). This analysis was performed using software developed at Cerep (Hill software) and validated by comparison with data generated by the commercial software SigmaPlot® 4.0 for Windows® (© 1997 by SPSS Inc.). The inhibition constants (Ki) were calculated using the Cheng Prusoff equation (Ki = IC50/[1 + L/KD], where L = concentration of radioligand in the assay, and KD = affinity of the radioligand for the receptor). A scatchard plot is used to determine the Kd.

α2 (non-selective) = assay: Radioligand binding; design: species or system rat
Protocol: as §1

[1] = tested on: Ca2+ channel (L, verapamil site) (phenylalkylamine); assay: Radioligand binding; design: species or system rat
Protocol: as §1

[2] = tested on: organotypic hippocampal slice cultures; assay: Neuroprotection primary screen, excitotoxin NMDA; format: cell-based; conditions: NMDA 10 µM; 10 and 100 µM compound
Source text: Gompound 1 : ADD Number: ItSot+ Batct: lE- Date Started:
Compound 2 : ADD Number: Froso Batct: le Date Completed i l|26-M ar -20 1 O […]
Excitotoxin: lNmoa lnsult Duration: la Uouo Solvent:
Primary Screen Results: ffi […]
Al lruuoa rolrr,| A2lr'rrr,tOa r Olrrr,t * --.- A3 lr'rnroa r oprvr + lsaoot+ t oplrl+aesogo iopM
BZ lr.rrr,ron ropr,t , -_-_-- 83 lluoa topt',r * jffi 1 4 t oopM.€sroso 1 oolrM la+eota tooptu*aasoeo roffi […]
The 'Primary screen Experiment" is a qualitative assessment of the ability of a compound to prevent excrtotoxic cell death. organotypic hippocampal slice cultures are treated *ltn r.i-."iivr-o-"spartate (NMDA) or kainic acad (KA) to induce neuronal cell death' Propidium iodide (Pl), a membrane-imper.eant cornpouna, is included in all wells of the culture plate.
Dying cells have compromised *]lT^"Toj*::, ttr. er rnJy oin "" into the cell, intercatate with DNA and fluoresce. Thus, the intensity of the Pl fluorescence is proportional to the amount of cell death in lhe individual itices. ttippocampat slice cullures are treated with the excitotoxin alone, or *i er. inoi"ui"o above, with the excitotoxin and either one -qf]bar-a Investigalional compounds at the concentrations indicated. lf neuroprotectron occurs as a consequence of the added […]
been treated with the excitotoxin alone.
(1 picture or pasted object on this page, not shown here)

κ (KOP) = κ (KOP) (Rattus norvegicus, UniProt P34975); assay: Radioligand binding
Protocol: as §1

D3 = D3 (Homo sapiens, UniProt P35462); assay: Radioligand binding
Protocol: as §1

5-HT2A = 5-HT2A (Homo sapiens, UniProt P28223); assay: Radioligand binding
Protocol: as §1

hNav1.1 sodium channel = molecular target: T1, hNav1.1 sodium channel (Homo sapiens, UniProt P35498); assay: Nav channel electrophysiology (IonWorks Quattro); format: cell-based
T1 construct: host or cells: CHO cells

[3] = 0.1 μM, read-out: % of control specific binding
[4] = 1 μM, read-out: % of control specific binding
[5] = 10 μM, read-out: % of control specific binding
[6] = 100 μM, read-out: % of control specific binding
[7] = 3 μM, read-out: % of control specific binding

Sequence of κ (KOP) (P34975 whole entry): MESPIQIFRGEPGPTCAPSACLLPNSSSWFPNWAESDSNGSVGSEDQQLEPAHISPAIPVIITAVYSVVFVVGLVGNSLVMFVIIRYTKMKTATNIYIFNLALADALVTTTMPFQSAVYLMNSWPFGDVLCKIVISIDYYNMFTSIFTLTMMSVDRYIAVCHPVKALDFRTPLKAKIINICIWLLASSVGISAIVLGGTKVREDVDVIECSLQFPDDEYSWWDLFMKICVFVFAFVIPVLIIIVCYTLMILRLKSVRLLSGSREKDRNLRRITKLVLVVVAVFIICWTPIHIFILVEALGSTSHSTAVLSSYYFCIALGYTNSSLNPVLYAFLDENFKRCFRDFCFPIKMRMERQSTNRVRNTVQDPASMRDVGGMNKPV
Sequence of 5-HT2A (P28223 whole entry): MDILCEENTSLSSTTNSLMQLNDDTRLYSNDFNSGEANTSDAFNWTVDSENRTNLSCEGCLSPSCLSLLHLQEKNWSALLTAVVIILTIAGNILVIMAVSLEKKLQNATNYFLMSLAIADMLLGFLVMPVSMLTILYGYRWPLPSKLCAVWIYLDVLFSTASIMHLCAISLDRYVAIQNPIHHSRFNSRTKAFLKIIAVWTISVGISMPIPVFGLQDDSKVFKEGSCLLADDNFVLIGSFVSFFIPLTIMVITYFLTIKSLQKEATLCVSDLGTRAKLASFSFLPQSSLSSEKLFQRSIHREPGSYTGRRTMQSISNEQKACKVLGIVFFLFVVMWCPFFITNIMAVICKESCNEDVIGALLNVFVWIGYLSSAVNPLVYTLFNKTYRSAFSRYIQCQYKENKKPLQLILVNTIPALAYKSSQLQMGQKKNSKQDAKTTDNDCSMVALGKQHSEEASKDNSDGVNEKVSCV
Sequence of D3 (P35462 whole entry): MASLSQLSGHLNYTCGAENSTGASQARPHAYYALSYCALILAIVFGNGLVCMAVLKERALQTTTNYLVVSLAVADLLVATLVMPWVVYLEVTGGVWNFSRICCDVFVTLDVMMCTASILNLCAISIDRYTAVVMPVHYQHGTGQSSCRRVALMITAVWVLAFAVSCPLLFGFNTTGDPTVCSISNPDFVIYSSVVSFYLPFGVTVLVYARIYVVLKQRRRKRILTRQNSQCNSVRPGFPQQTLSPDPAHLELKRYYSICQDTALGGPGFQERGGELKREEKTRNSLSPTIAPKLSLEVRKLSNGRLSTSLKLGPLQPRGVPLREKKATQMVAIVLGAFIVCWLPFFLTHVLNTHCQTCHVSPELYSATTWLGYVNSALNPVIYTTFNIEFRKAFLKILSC

Q: How did the “% of control specific binding” value (Sigma (non-selective); 100 μM) turn out when `CCC(CO)NCCOc1c(C)cccc1Cl` (stereo not shown) [Compound 4, R,S-2-((2-(2-chloro-6-methylphenoxy)ethyl)amino)butan-1-ol] was run?
A: -2.7%

Q: What about the “% of control specific binding” value (α2 (non-selective); 100 μM) of the same compound?
A: 27.7%

Q: What about the “% of control specific binding” value ([1]; 100 μM) of the same compound?
A: 38.5%

Q: What about the “Test Result (neuroprotection)” value [2] of the same compound?
A: No Neuroprotection

Q: And the “% of control specific binding” value (κ (KOP); 100 μM)?
A: 29.0%

Q: And the “% of control specific binding” value (D3; 100 μM)?
A: 11.9%

Q: What about the “% of control specific binding” value (5-HT2A; 100 μM) of the same compound?
A: 37.1%

Q: Which IC50 (Sigma (non-selective)) does the source give for `CCC(CO)NCCOc1c(C)cccc1Cl` (stereo not shown) [KM-408, R,S-2-((2-(2-chloro-6-methylphenoxy)ethyl)amino)butan-1-ol hydrochloride] here?
A: 0.089 µM

Q: What about the Ki (Sigma (non-selective)) of the same compound?
A: 0.072 µM

Q: And the “% of control specific binding” value (Sigma (non-selective); 0.001 μM)?
A: 104.0%

Q: What about the “% of control specific binding” value (Sigma (non-selective); 0.01 μM) of the same compound?
A: 97.1%

Q: What about the “% of control specific binding” value (Sigma (non-selective); 0.1 μM) of the same compound?
A: 50.0%

Q: And the “% of control specific binding” value (Sigma (non-selective); 1 μM)?
A: 13.1%

Q: What about the “% of control specific binding” value (Sigma (non-selective); 10 μM) of the same compound?
A: 1.4%

Q: And the IC50 (α2 (non-selective))?
A: 24 µM

Q: What about the Ki (α2 (non-selective)) of the same compound?
A: 10 µM

Q: What about the “% of control specific binding” value (α2 (non-selective); 0.01 μM) of the same compound?
A: 101.3%

Q: And the “% of control specific binding” value (α2 (non-selective); 0.1 μM)?
A: 111.6%

Q: And the “% of control specific binding” value (α2 (non-selective); 1 μM)?
A: 101.2%

Q: What about the “% of control specific binding” value (α2 (non-selective); 10 μM) of the same compound?
A: 73.4%

Q: What about the “% of control specific binding” value (α2 (non-selective); 100 μM) of the same compound?
A: 23.5%

Q: And the IC50 [1]?
A: 43 µM

Q: What about the Ki [1] of the same compound?
A: 22 µM

Q: And the “% of control specific binding” value ([1]; 0.1 μM)?
A: 101.9%

Q: What about the “% of control specific binding” value ([1]; 1 μM) of the same compound?
A: 104.4%

Q: And the “% of control specific binding” value ([1]; 3 μM)?
A: 93.6%

Q: What about the “% of control specific binding” value ([1]; 10 μM) of the same compound?
A: 80.9%

Q: And the “% of control specific binding” value ([1]; 100 μM)?
A: 34.8%

Q: What about the IC50 (hNav1.1 sodium channel; 10 Hz) of the same compound?
A: 17.5 µM

Q: What about the IC50 (hNav1.1 sodium channel; Inactivated state) of the same compound?
A: < 10 µM

Q: What about the IC50 (hNav1.1 sodium channel; Tonic block) of the same compound?
A: 64.2 µM

Q: And the IC50 (κ (KOP))?
A: 25 µM

Q: And the Ki (κ (KOP))?
A: 17 µM

Q: And the remaining activity at 0.01 µM (κ (KOP); 0.01 μM, read-out: % of control specific binding)?
A: 104%

Q: And the remaining activity at 0.1 µM (κ (KOP); [3])?
A: 98.3%

Q: What about the remaining activity at 1 µM (κ (KOP); [4]) of the same compound?
A: 97.3%

Q: And the remaining activity at 10 µM (κ (KOP); [5])?
A: 72.1%

Q: What about the remaining activity at 100 µM (κ (KOP); [6]) of the same compound?
A: 21.1%

Q: What about the IC50 (D3) of the same compound?
A: 22 µM

Q: And the Ki (D3)?
A: 4.9 µM

Q: And the remaining activity at 0.003 µM (D3; 0.003 μM, read-out: % of control specific binding)?
A: 104%

Q: And the remaining activity at 0.03 µM (D3; 0.03 μM, read-out: % of control specific binding)?
A: 103%

Q: What about the remaining activity at 0.3 µM (D3; 0.3 μM, read-out: % of control specific binding) of the same compound?
A: 102%

Q: And the remaining activity at 3 µM (D3; [7])?
A: 95.3%

Q: What about the remaining activity at 30 µM (D3; 30 μM, read-out: % of control specific binding) of the same compound?
A: 42.5%

Q: What about the IC50 (5-HT2A) of the same compound?
A: 55 µM

Q: What about the Ki (5-HT2A) of the same compound?
A: 30 µM

Q: And the remaining activity at 0.1 µM (5-HT2A; [3])?
A: 104%

Q: What about the remaining activity at 1 µM (5-HT2A; [4]) of the same compound?
A: 95%

Q: What about the remaining activity at 3 µM (5-HT2A; [7]) of the same compound?
A: 94.1%

Q: What about the remaining activity at 10 µM (5-HT2A; [5]) of the same compound?
A: 85.1%

Q: What about the remaining activity at 100 µM (5-HT2A; [6]) of the same compound?
A: 36.9%
